In PubChem BioAssay (NCI):
Several values for one entry are separate records, joined by “and”; a condition that tells them apart may be missing. Identical values can stand only once.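 Where inhibition never reached the appropriate level, the endpoint shown equals the highest concentration tested. Otherwise, values were interpolated linearly from a five-concentration, 48-hour dose response in 96-well plates. GI50 = concentration required for 50% inhibition of growth. TGI: concentration producing complete growth inhibition.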

Legend:
Test in all cases: NCI anticancer screen, dose series, 48 h
BT-549 breast = system: BT-549 breast
CAKI-1 renal = system: CAKI-1 renal
K-562 leukemia = system: K-562 leukemia
MDA-MB-231 breast = system: MDA-MB-231 breast
NCI-H460 lung = system: NCI-H460 lung
OVCAR-5 ovarian = system: OVCAR-5 ovarian
RXF 393 renal = system: RXF 393 renal
OVCAR-3 ovarian = system: OVCAR-3 ovarian

Compound	GI50 (BT-549 breast)	TGI (BT-549 breast)	GI50 (CAKI-1 renal) [µM]	TGI (CAKI-1 renal) [µM]	GI50 (K-562 leukemia)	TGI (K-562 leukemia) [µM]	GI50 (MDA-MB-231 breast)	TGI (MDA-MB-231 breast)	GI50 (NCI-H460 lung)	TGI (NCI-H460 lung)	GI50 (OVCAR-5 ovarian)	TGI (OVCAR-5 ovarian) [µM]	GI50 (RXF 393 renal)	TGI (RXF 393 renal)	TGI (OVCAR-3 ovarian)	GI50 (OVCAR-3 ovarian)
Cc1cc2nc(-c3c(F)cccc3Cl)n(Cc3c(F)cccc3Cl)c2cc1C	18.5 µM	46.2 µM	2.92	14.6	39.4 µM	> 100	10.4 µM	23.1 µM	6.32 µM	30.9 µM	15.9 µM	34.1	11.8 µM	28.4 µM		
COc1cc(-c2cc(=O)c3c(O)c(OC)c(OC)c(OC)c3o2)cc(OC)c1OC		> 100 µM				> 100		38.5 µM		> 100 µM		> 100		33.2 µM	> 100 µM	
C=CC(C)(O)CC/C=C(\CO)C(=O)OC1C(C)OC(O[C@](C)(C=C)CC/C=C(\CO)C(=O)O[C@H]2C[C@@]3(C(=O)OC4OC(CO)C(O)C(O)C4OC4OC(C)C(OC5OC(CO)C(O)C5O)C(OC5OC(CO)C(O)C(O)C5O)C4O)C(CC2(C)C)C2=CCC4[C@@]5(C)CC[C@H](OC6OC(COC7OC(C)C(O)C(O)C7OC7OCC(O)C(O)C7O)C(O)C(O)C6NC(C)=O)C(C)(C)C5CC[C@@]4(C)[C@]2(C)C[C@H]3O)C(O)C1O (stereo partly specified)	5.04 µM	10.6 µM	0.196	0.916	7.13 µM	16.7	0.0722 µM	0.39 µM	3.72 µM	9.79 µM	1.38 µM	5.95	0.754 µM	4.03 µM	0.344 µM	0.0947 µM
NNC(=O)C(O)C(O)C(=O)NN (stereo unspecified)		> 100 µM		> 100		> 100		> 100 µM				> 100		> 100 µM	> 100 µM	
O=C(/C=C/c1ccccc1)CCC1C(=O)NC(=S)NC1=O		> 100 µM		> 100		> 100		> 100 µM		> 100 µM		> 100		> 100 µM	> 100 µM	
O=C(C=C=Nc1ccccc1)C(=O)N=C=Cc1ccccc1	2.59 µM	9.2 µM	1.73	6.05	1.59 µM		3.15 µM	10.4 µM	14.1 µM	44.1 µM	2.88 µM	11.8		0.497 µM	2.97 µM	1.48 µM
CCOC(=O)c1c(C)n(Cc2ccccc2)c2c1cc1oc(=O)c(=O)n3cnc2c13	16.2 µM	34.2 µM	14.7	48.8	12.9 µM	> 50	13 µM	> 50 µM	15.9 µM	> 50 µM	36.9 µM	> 50	16 µM	> 50 µM	34.7 µM	12.3 µM
O=C(NOCCO)c1cc(CN2OCCCC2=O)c(F)c(F)c1Nc1ccc(I)cc1F	17.3 µM and > 10 µM	> 100 µM	0.29	> 40.5	1.01 µM and 1.42 µM	> 100	0.243 µM and 0.116 µM	62.2 µM and > 10 µM	12.9 µM and > 10 µM	> 100 µM	< 0.01 µM and 0.00485 µM	> 100	0.521 µM and 0.336 µM	25.9 µM and > 10 µM	98.7 µM and > 10 µM	28.9 µM and > 10 µM
CC(C(N)=O)N(C)C(=O)c1cnc2ccccc2c1 (stereo unspecified)		> 100 µM		> 100		> 100		> 100 µM		> 100 µM		> 100		> 100 µM	> 100 µM	
COc1cc2c(cc1OCCCOc1ccc(-c3nc4ccc(N5CCN(C)CC5)cc4[nH]3)cc1)N=C[C@@H]1CCCN1C2=O	< 0.01 µM	< 0.01 µM	< 0.01	< 0.01	< 0.01 µM	0.818	< 0.01 µM	< 0.01 µM	< 0.01 µM	< 0.0505 µM	< 0.01 µM		< 0.01 µM	< 0.01 µM	< 0.01 µM	< 0.01 µM
Cn1cc(C2=C(c3cn(CCCCC(=N)N)c4ccccc34)C(=O)NC2=O)c2ccccc21	> 25 µM	> 25 µM	> 25	> 25	13.5 µM	> 25	> 25 µM	> 25 µM	> 23.8 µM	> 25 µM	> 25 µM	> 25	> 25 µM	> 25 µM	> 25 µM	> 23.7 µM
COc1ccc(C(=O)c2cc3c(N)c(C(=O)Nc4cccc(OC)c4)sc3nc2C)cc1	1.67 µM	> 100 µM	0.694	> 100	0.378 µM	> 100	1.47 µM	> 100 µM	0.741 µM	> 100 µM	1.54 µM	> 100	0.323 µM			
Cc1cc(Nc2nc(-c3ccncc3)nc3ccccc23)n[nH]1	9.09 µM	> 100 µM	0.58	> 100	4.99 µM	> 100	14.7 µM	> 100 µM	6.18 µM	> 100 µM	> 100 µM	> 100	0.91 µM	9.29 µM	> 100 µM	9.26 µM
CN1CCN(c2ccc3nc(-c4ccc(OCCCCN5CCN(CCCCN6C(=O)c7cccc8cccc(c78)C6=O)CC5)cc4)[nH]c3c2)CC1	40.4 µM	> 100 µM	73.1	> 100	> 100 µM	> 100	54.7 µM	> 100 µM	63.4 µM	> 100 µM	> 100 µM	> 100			> 100 µM	36.6 µM
CN=C(N)N/N=C(\C)c1ccc2c(c1)Cc1ccccc1-2	10.2 µM	27.9 µM	2.5	8.82	1.28 µM	2.69	1.78 µM	4.31 µM	0.556 µM	1.81 µM	1.65 µM	3.96	4.06 µM	66.5 µM		
Cc1cc(Br)cc(C)c1NC(=O)C(=O)Nn1c(=S)[nH]c2ccccc2c1=O		> 100 µM		> 100		> 100		> 100 µM		> 100 µM		> 100		> 100 µM	> 100 µM	
COc1cc(/C=N/NC(=O)c2ccccc2Nc2cccc(C(F)(F)F)c2)cc(OC)c1OC	2.3 µM	9.23 µM	1.4	4.71	2.52 µM	> 37.2	6.33 µM	20.5 µM	2.3 µM	6.33 µM	11.8 µM	33.1	2.35 µM	5.87 µM	2.33 µM	0.797 µM
CC(N1CCOCC1)C(O)(c1ccccc1)c1ccccn1 (stereo unspecified)		> 100 µM		> 100		> 100		> 100 µM		> 100 µM		> 100		> 100 µM	> 100 µM	

Compound	GI50 (BT-549 breast)	TGI (BT-549 breast)	GI50 (CAKI-1 renal) [µM]	TGI (CAKI-1 renal) [µM]	GI50 (K-562 leukemia)	TGI (K-562 leukemia) [µM]	GI50 (MDA-MB-231 breast)	TGI (MDA-MB-231 breast)	GI50 (NCI-H460 lung)	TGI (NCI-H460 lung)	GI50 (OVCAR-5 ovarian)	TGI (OVCAR-5 ovarian) [µM]	GI50 (RXF 393 renal)	TGI (RXF 393 renal)	TGI (OVCAR-3 ovarian)	GI50 (OVCAR-3 ovarian)
O=C(CCCCCCCCC(=O)N/N=C\c1cc(Cl)ccc1O)N/N=C\c1cc(Cl)ccc1O	0.526 µM	96.8 µM	0.251	> 100	0.38 µM	10.2	0.265 µM	> 82.6 µM	0.162 µM	19.6 µM	7.99 µM	> 100	0.208 µM	7.78 µM	> 100 µM	0.311 µM
O=C(/C=C/c1ccco1)c1ccc(Nc2nc(Nc3ccc(F)cc3)nc(Nc3ccc(F)cc3)n2)cc1	4.9 µM	26.8 µM	26.7	60.5	10.8 µM	46	23.7 µM	> 100 µM	13.1 µM	59 µM	47.6 µM	> 100	41.4 µM	> 100 µM	45.9 µM	16.9 µM
O=Cc1ccc(N2CCN(c3ccc(C=O)cc3)CC2)cc1			10.8	76.5	> 100 µM	> 100	> 100 µM	> 100 µM	77.2 µM	> 100 µM	2.6 µM	8.09	67.2 µM	> 100 µM	> 100 µM	> 100 µM
NS(=O)(=O)c1ccc(NC(=O)c2cccc(NC3=C(Cl)C(=O)N(Cc4ccccc4)C3=O)c2)cc1	5.31 µM	21.3 µM	12.5	25.9	2.27 µM	6.09	6.93 µM	37 µM	10.5 µM	25.6 µM			10.6 µM	33.9 µM	27 µM	12.4 µM
CCCOC(=O)C1C2CCC(O2)C1C(=O)O (stereo unspecified)		> 100 µM		> 100		> 100		> 100 µM				> 100		> 100 µM	> 100 µM	
CC1=C(N2CC2)C(=O)c2ccccc2C1=O				1.79		3.5		32.8 µM		2.39 µM		1.69		2.64 µM	2.89 µM	
Nc1ccn(C2OC(C(OC3OC(CO)C(O)C(N)C3O)C(O)C(O)C(O)C(O)CO)C(N)C(O)C2O)c(=O)n1 (stereo unspecified)		99 µM		> 100				41.1 µM		> 100 µM		> 100			86.6 µM	
COc1ccc2c(c1)/C(=N/OC(C)=O)c1c-2cnc2ccccc12	49.5 µM	> 100 µM			24.4 µM	73.1	22.1 µM	59.4 µM	30.3 µM	> 100 µM	21.9 µM	55.6	26.4 µM	68.5 µM		
CNC(c1ccncc1)C(NC)c1ccncc1 (stereo unspecified)		> 100 µM		> 100		> 100		> 100 µM				> 100		> 100 µM	> 100 µM	
CC(=O)[C-](C(C)=O)c1ccccc1.CC(=O)[C-](C(C)=O)c1ccccc1.CC(=O)[C-](C(C)=O)c1ccccc1.[Cl-].[Zr+4]			> 100	> 100	> 100 µM	> 100			> 100 µM	> 100 µM	> 100 µM	> 100	28.1 µM	98.3 µM	> 100 µM	> 100 µM
CN(C(=O)CNC(=O)/C=C/c1cccc(Cl)c1)C1CCS(=O)(=O)CC1	6.09 µM	> 100 µM	3.78	> 100			0.525 µM	> 100 µM	13.9 µM	> 100 µM	8.5 µM	> 100	6.47 µM	40.7 µM	> 100 µM	1.21 µM
Cn1cc(-c2nc(N[C@@H]3CCCC[C@@H]3N)c(F)c3c2C(=O)NC3)cn1	6.47 µM and 10 µM	21.3 µM and 29.7 µM			6.83 µM and 6.77 µM	> 100	5.04 µM and 6.15 µM	26.2 µM and 31.9 µM	5.87 µM and 6.08 µM	63.2 µM and > 100 µM	7.14 µM and 8.43 µM	> 100	1.99 µM and 2.47 µM	10.5 µM and 12.5 µM	42.1 µM and 38.7 µM	15.1 µM and 15.6 µM
Oc1ccc(Cl)cc1/C=N\NC(=S)N/N=C/c1cc(Cl)ccc1O			1.24	8.48	2.63 µM	> 100	1.84 µM	27.6 µM	2.58 µM	13.3 µM	5.04 µM	> 100	2.03 µM	6.83 µM	11.7 µM	1.87 µM
C/C(=N/O)c1ccc(Nc2cc(-n3ccnc3)c3ccccc3n2)cc1	16.8 µM	84.7 µM	26.6	> 100	3.27 µM	> 100	8.81 µM	38.2 µM	21.5 µM	> 100 µM	86.6 µM	> 100			91.3 µM	22.5 µM
Nc1c(C(=O)Nc2cccc3ccccc23)sc2nc3c(cc12)C(=O)CCC3	3.08 µM	> 67.1 µM	0.359	> 100	0.131 µM	> 100	0.379 µM	6.92 µM	0.165 µM		0.604 µM	> 100			0.696 µM	0.229 µM
CCCCCCCCCCSC(=N)N	11.3 µM	24.6 µM	1.75	5.26			2.51 µM	9.15 µM	2.02 µM	4.68 µM	9.84 µM	23.5	5.1 µM	17.6 µM	13.8 µM	3.71 µM
COc1ccc(NC(=O)C2C(=O)N(c3ccc(OC)cc3)C(=O)/C2=N\NC(N)=O)cc1 (stereo unspecified)				> 100		> 100				> 100 µM		> 100		56.7 µM	> 100 µM	
